Laboratory results taken from US10590128B2, “6,7,8,9-tetrahydro-5H-pyrido[2,3-d]azepine dopamine D3 ligands” (Pfizer Inc., priority 2016, dated 2020).

Key:
[1] = target: human dopamine D2 receptor (hD2R) (Homo sapiens, UniProt P14416); experiment: Human D2 receptor binding assay ([^3H]-Spiperone); conditions: CHO cells expressing hD2R, geometric mean of 2-5 determinations unless marked b (single determination)
[2] = target: human dopamine D3 receptor (hD3R) (Homo sapiens, UniProt P35462); experiment: Human D3 receptor binding assay ([^3H]-7-OH-DPAT); conditions: CHO cells expressing hD3R, geometric mean of 2-5 determinations unless marked b (single determination), read-out: hD3 in CHO cells Ki
human dopamine D3 receptor (hD3R), sequence (P35462 whole entry): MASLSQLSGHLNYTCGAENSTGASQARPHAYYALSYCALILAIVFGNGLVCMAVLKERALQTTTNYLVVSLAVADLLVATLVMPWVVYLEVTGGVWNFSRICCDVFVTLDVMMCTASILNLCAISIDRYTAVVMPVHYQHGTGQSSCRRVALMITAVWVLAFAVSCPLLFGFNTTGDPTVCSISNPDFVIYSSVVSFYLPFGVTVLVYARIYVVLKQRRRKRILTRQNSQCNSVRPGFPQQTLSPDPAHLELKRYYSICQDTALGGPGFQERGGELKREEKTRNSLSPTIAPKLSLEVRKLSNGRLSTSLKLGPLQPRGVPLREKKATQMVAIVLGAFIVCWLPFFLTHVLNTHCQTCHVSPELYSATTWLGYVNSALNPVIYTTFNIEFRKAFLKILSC

human dopamine D2 receptor (hD2R), sequence (P14416 whole entry): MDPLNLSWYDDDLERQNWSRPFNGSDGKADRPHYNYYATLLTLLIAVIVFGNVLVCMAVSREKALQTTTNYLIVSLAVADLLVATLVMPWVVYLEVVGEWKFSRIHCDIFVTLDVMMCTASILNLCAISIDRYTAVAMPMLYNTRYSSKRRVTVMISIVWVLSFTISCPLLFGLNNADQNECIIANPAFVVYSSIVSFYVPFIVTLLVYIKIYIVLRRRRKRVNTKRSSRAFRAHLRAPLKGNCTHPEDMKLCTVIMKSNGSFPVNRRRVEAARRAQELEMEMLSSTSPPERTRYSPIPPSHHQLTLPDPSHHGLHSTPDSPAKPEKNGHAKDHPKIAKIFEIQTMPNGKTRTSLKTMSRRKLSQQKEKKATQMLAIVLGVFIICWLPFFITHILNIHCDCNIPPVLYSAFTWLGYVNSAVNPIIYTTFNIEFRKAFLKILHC

## CCN1CCc2cc(NS(=O)(=O)c3ccc(OC4CCCC4)nc3)c(OC)nc2CC1 [Example 2, 6-(Cyclopentyloxy)-N-(7-ethyl-2-methoxy-6,7,8,9-tetrahydro-5H-pyrido[2,3-d]azepin-3-yl)pyridine-3-sulfonamide]
[1]
  Ki: 0.076 µM
[2]
  Ki: 0.000859 µM

## CCN1CCc2cc(NS(=O)(=O)c3ccc4c(c3)CCC(C)(C)O4)c(OC)nc2CC1 [Example 64, N-(7-ethyl-2-methoxy-6,7,8,9-tetrahydro-5H-pyrido[2,3-d]azepin-3-yl)-2,2-dimethyl-3,4-dihydro-2H-chromene-6-sulfonamide]
[1]
  Ki: 0.0212 µM
[2]
  Ki: 0.00048 µM

## CCCN1CCc2cc(NS(=O)(=O)c3ccc(C(C)C)cc3)c(OC(F)F)nc2CC1 [Example 12, N-[2-(Difluoromethoxy)-7-propyl-6,7,8,9-tetrahydro-5H-pyrido[2,3-d]azepin-3-yl]-4-(propan-2-yl)benzenesulfonamide]
[1]
  Ki: 0.26 µM
[2]
  Ki: 0.281 µM

## COc1nc2c(cc1NS(=O)(=O)c1ccc([C@H]3CCCCO3)cc1)CCN(C)CC2 [Example 7, N-(2-Methoxy-7-methyl-6,7,8,9-tetrahydro-5H-pyrido[2,3-d]azepin-3-yl)-4-[(2R)-tetrahydro-2H-pyran-2-yl]benzenesulfonamide]
[1]
  Ki: 0.0655 µM
[2]
  Ki: 0.00139 µM

## COc1nc2c(cc1NS(=O)(=O)c1ccc(OC3CCCC3)nc1)CCN(C)CC2 [Example 15, 6-(cyclopentyloxy)-N-(2-methoxy-7-methyl-6,7,8,9-tetrahydro-5H-pyrido[2,3-d]azepin-3-yl)pyridine-3-sulfonamide]
[1]
  Ki: 0.0133 µM
[2]
  Ki: 0.000714 µM

## CCN1CCc2cc(NS(=O)(=O)c3ccc(C)c(C)c3)c(OC)nc2CC1 [Example 61, N-(7-ethyl-2-methoxy-6,7,8,9-tetrahydro-5H-pyrido[2,3-d]azepin-3-yl)-3,4-dimethylbenzenesulfonamide]
[1]
  Ki: 0.388 µM
[2]
  Ki: 0.00233 µM

## COc1nc2c(cc1NS(=O)(=O)c1ccc([C@H]3C[C@H](OC)C3)cc1)CCN(C)CC2 [Example 76, 4-(trans-3-methoxycyclobutyl)-N-(2-methoxy-7-methyl-6,7,8,9-tetrahydro-5H-pyrido[2,3-d]azepin-3-yl)benzenesulfonamide]
[1]
  Ki: 0.203 µM
[2]
  Ki: 0.00128 µM

## CCOc1ccc(S(=O)(=O)Nc2cc3c(nc2OC)CCN(C)CC3)cc1 [Example 28, 4-ethoxy-N-(2-methoxy-7-methyl-6,7,8,9-tetrahydro-5H-pyrido[2,3-d]azepin-3-yl)benzenesulfonamide]
[1]
  Ki: 0.124 µM
[2]
  Ki: 0.00233 µM

## CCOc1ccc(S(=O)(=O)Nc2cc3c(nc2C)CCN(CC)CC3)cc1 [Example 137, 4-Ethoxy-N-(7-ethyl-2-methyl-6,7,8,9-tetrahydro-5H-pyrido[2,3-d]azepin-3-yl)benzenesulfonamide]
[1]
  Ki: > 4.19 µM
[2]
  Ki: 0.152 µM

## COc1nc2c(cc1NS(=O)(=O)c1ccc(C3CC(F)(F)CCO3)cc1)CCN(C)CC2 (racemic) [Example 40, 4-(4,4-difluorotetrahydro-2H-pyran-2-yl)-N-(2-methoxy-7-methyl-6,7,8,9-tetrahydro-5H-pyrido[2,3-d]azepin-3-yl)benzenesulfonamide]
[1]
  Ki: 0.134 µM
[2]
  Ki: 0.00259 µM

## CCN1CCc2nc(OC)c(NS(=O)(=O)c3ccc(C)cc3)cc2C(C)C1 (centres unmarked) [Example 13, N-(7-ethyl-2-methoxy-5-methyl-6,7,8,9-tetrahydro-5H-pyrido[2,3-d]azepin-3-yl)-4-methylbenzenesulfonamide]
[1]
  Ki: 0.923 µM
[2]
  Ki: 0.0108 µM

## COc1nc2c(cc1NS(=O)(=O)c1cnc(C3CCCC3)nc1)CCN(C)CC2 [Example 123, 2-cyclopentyl-N-(2-methoxy-7-methyl-6,7,8,9-tetrahydro-5H-pyrido[2,3-d]azepin-3-yl)pyrimidine-5-sulfonamide]
[1]
  Ki: 0.164 µM
[2]
  Ki: 0.0129 µM

## CCN1CCc2cc(NS(=O)(=O)c3ccc(C4CCCCO4)cc3)c(OC)nc2CC1 (single isomer, unassigned) [Example 73]
[1]
  Ki: 1.04 µM
[2]
  Ki: 0.00441 µM

## COc1nc2c(cc1NS(=O)(=O)c1ccc(C3CCCCC3)cc1)CCN(C)CC2 [Example 45, 4-cyclohexyl-N-(2-methoxy-7-methyl-6,7,8,9-tetrahydro-5H-pyrido[2,3-d]azepin-3-yl)benzenesulfonamide]
[1]
  Ki: 0.0032 µM
[2]
  Ki: 0.00032 µM

## COc1nc2c(cc1NS(=O)(=O)c1ccc(OC3CCC3)nc1)CCN(C)CC2 [Example 17, 6-(cyclobutyloxy)-N-(2-methoxy-7-methyl-6,7,8,9-tetrahydro-5H-pyrido[2,3-d]azepin-3-yl)pyridine-3-sulfonamide]
[1]
  Ki: 0.0902 µM
[2]
  Ki: 0.00195 µM

## CCO[C@H]1C[C@H](c2ccc(S(=O)(=O)Nc3cc4c(nc3OC)CCN(C)CC4)cn2)C1 [Example 134, 6-(trans-3-ethoxycyclobutyl)-N-(2-methoxy-7-methyl-6,7,8,9-tetrahydro-5H-pyrido[2,3-d]azepin-3-yl)pyridine-3-sulfonamide]
[1]
  Ki: 1.81 µM
[2]
  Ki: 0.0148 µM

## COc1nc2c(cc1NS(=O)(=O)c1ccc([C@@H]3CCCO3)cc1)CCN(C)CC2 [Example 98, N-(2-methoxy-7-methyl-6,7,8,9-tetrahydro-5H-pyrido[2,3-d]azepin-3-yl)-4-[(2S)-tetrahydrofuran-2-yl]benzenesulfonamide]
[1]
  Ki: 0.488 µM
[2]
  Ki: 0.00401 µM

## COc1nc2c(cc1NS(=O)(=O)c1ccc([C@H]3CC[C@@H](OC)CC3)cc1)CCN(C)CC2 [Example 92, 4-(cis-4-methoxycyclohexyl)-N-(2-methoxy-7-methyl-6,7,8,9-tetrahydro-5H-pyrido[2,3-d]azepin-3-yl)benzenesulfonamide]
[1]
  Ki: 0.6 µM
[2]
  Ki: 0.00553 µM

## COc1nc2c(cc1NS(=O)(=O)c1ccc(C3(C(F)(F)F)CC3)cc1)CCN(C)CC2 [Example 55, N-(2-methoxy-7-methyl-6,7,8,9-tetrahydro-5H-pyrido[2,3-d]azepin-3-yl)-4-[1-(trifluoromethyl)cyclopropyl]benzenesulfonamide]
[1]
  Ki: 0.0291 µM
[2]
  Ki: 0.00052 µM

## COc1nc2c(cc1NS(=O)(=O)c1ccc(C3(F)CCC(OC)CC3)cc1)CCN(C)CC2 (single isomer, unassigned) [Example 39, 4-(cis-1-fluoro-4-methoxycyclohexyl)-N-(2-methoxy-7-methyl-6,7,8,9-tetrahydro-5H-pyrido[2,3-d]azepin-3-yl)benzenesulfonamide]
[1]
  Ki: 0.561 µM
[2]
  Ki: 0.00195 µM

## COc1nc2c(cc1NS(=O)(=O)c1ccc(C3CCOC3)cc1)CCN(C)CC2 (centres unmarked) [Example 36, N-(2-methoxy-7-methyl-6,7,8,9-tetrahydro-5H-pyrido[2,3-d]azepin-3-yl)-4-(tetrahydrofuran-3-yl)benzenesulfonamide]
[1]
  Ki: 0.26 µM
[2]
  Ki: 0.00329 µM

## CCN1CCc2cc(NS(=O)(=O)c3ccc([C@@H]4CCCCO4)c(F)c3)c(OC)nc2CC1 [Example 43, N-(7-ethyl-2-methoxy-6,7,8,9-tetrahydro-5H-pyrido[2,3-d]azepin-3-yl)-3-fluoro-4-[(2S)-tetrahydro-2H-pyran-2-yl]benzenesulfonamide]
[1]
  Ki: 0.131 µM
[2]
  Ki: 0.00179 µM

## COc1nc2c(cc1NS(=O)(=O)c1ccc([C@]3(F)C[C@H](C)C3)nc1)CCN(C)CC2 [Example 136, 6-(trans-1-fluoro-3-methylcyclobutyl)-N-(2-methoxy-7-methyl-6,7,8,9-tetrahydro-5H-pyrido[2,3-d]azepin-3-yl)pyridine-3-sulfonamide]
[1]
  Ki: 1.22 µM
[2]
  Ki: 0.00746 µM

## CCN1CCc2cc(NS(=O)(=O)c3ccc(C)cc3)c(OC)nc2CC1 [Example 53, N-(7-ethyl-2-methoxy-6,7,8,9-tetrahydro-5H-pyrido[2,3-d]azepin-3-yl)-4-methylbenzenesulfonamide]
[1]
  Ki: 0.313 µM
[2]
  Ki: 0.00275 µM

## CCN1CCc2cc(NS(=O)(=O)c3ccc(C4(F)CCCC4)nc3)c(OC)nc2CC1 [Example 101, N-(7-ethyl-2-methoxy-6,7,8,9-tetrahydro-5H-pyrido[2,3-d]azepin-3-yl)-6-(1-fluorocyclopentyl)pyridine-3-sulfonamide]
[1]
  Ki: 0.677 µM
[2]
  Ki: 0.00626 µM

## COc1nc2c(cc1NS(=O)(=O)c1ccc([C@H]3CCCCO3)nc1)CCN(C)CC2 [Example 129, N-(2-methoxy-7-methyl-6,7,8,9-tetrahydro-5H-pyrido[2,3-d]azepin-3-yl)-6-[(2R)-tetrahydro-2H-pyran-2-yl]pyridine-3-sulfonamide]
[1]
  Ki: 0.786 µM
[2]
  Ki: 0.0167 µM

## CCN1CCc2cc(NS(=O)(=O)c3ccc([C@H]4C[C@@H](OC)C4)cc3)c(OC)nc2CC1 [Example 72, N-(7-ethyl-2-methoxy-6,7,8,9-tetrahydro-5H-pyrido[2,3-d]azepin-3-yl)-4-(cis-3-methoxycyclobutyl)benzenesulfonamide]
[1]
  Ki: 0.42 µM
[2]
  Ki: 0.00265 µM

## CCN1CCc2cc(NS(=O)(=O)c3ccc(C4CC4)cc3)c(OC)nc2CC1 [Example 30, 4-cyclopropyl-N-(7-ethyl-2-methoxy-6,7,8,9-tetrahydro-5H-pyrido[2,3-d]azepin-3-yl)benzenesulfonamide]
[1]
  Ki: 0.055 µM
[2]
  Ki: 0.00089 µM

## COc1nc2c(cc1NS(=O)(=O)c1ccc(C3CCOCC3)cc1)CCN(C)CC2 [Example 4, N-(2-Methoxy-7-methyl-6,7,8,9-tetrahydro-5H-pyrido[2,3-d]azepin-3-yl)-4-(tetrahydro-2H-pyran-4-yl)benzenesulfonamide]
[1]
  Ki: 0.104 µM
[2]
  Ki: 0.00153 µM

## COc1nc2c(cc1NS(=O)(=O)c1ccc([C@@H]3CCCCO3)c(F)c1)CCN(C)CC2 [Example 111, 3-fluoro-N-(2-methoxy-7-methyl-6,7,8,9-tetrahydro-5H-pyrido[2,3-d]azepin-3-yl)-4-[(2S)-tetrahydro-2H-pyran-2-yl]benzenesulfonamide]
[1]
  Ki: 0.1 µM
[2]
  Ki: 0.0023 µM

## CCOc1ccc(S(=O)(=O)Nc2cc3c(nc2OC)CCN(CCOC)CC3)cc1 [Example 29, 4-ethoxy-N-[2-methoxy-7-(2-methoxyethyl)-6,7,8,9-tetrahydro-5H-pyrido[2,3-d]azepin-3-yl]benzenesulfonamide]
[1]
  Ki: 1.07 µM
[2]
  Ki: 0.0111 µM
